Results: patent US11667649B2, “Heteroaromatic macrocyclic ether chemotherapeutic agents” (Nuvalent, Inc., priority 2020, dated 2023)

Test system: TPM3-NTRK1-wt IC50 / primary target (e.g. CD74-ROS1-wt) IC50, Ba/F3 cells
Experiment: Cell assay TRKA selectivity (TRKA potency divided by primary target potency)
Type: cell-based
Details: for TPM3-NTRK1-wt/CD74-ROS1-G2032R: TRKA selectivity ratio: TPM3-NTRK1-wt IC50 / CD74-ROS1-G2032R IC50, Ba/F3 cells; for TPM3-NTRK1-wt/CD74-ROS1-wt: TRKA selectivity ratio: TPM3-NTRK1-wt IC50 / CD74-ROS1-wt IC50, Ba/F3 cells; for TPM3-NTRK1-wt/EML4-ALK-L1196M-G1202R: TRKA selectivity ratio: TPM3-NTRK1-wt IC50 / EML4-ALK-L1196M-G1202R IC50, Ba/F3 cells; for TPM3-NTRK1-wt/EML4-ALK-wt: TRKA selectivity ratio: TPM3-NTRK1-wt IC50 / EML4-ALK-wt IC50, Ba/F3 cells
Procedure, shortened: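 IL-3-independent Ba/F3 lines stably expressing TPM3-TRKA or the primary fusion (e.g. CD74-ROS1 wt) were exposed to 3-fold compound dilutions for 72 h. Viability was read by CellTiter-Glo luminescence, with IC50 from four-parameter logistic fit. Selectivity is TPM3-NTRK1 IC50 divided by primary-target IC50, binned A (>30-fold) to D (<1).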

SMILES | TPM3-NTRK1-wt/CD74-ROS1-G2032R | TPM3-NTRK1-wt/CD74-ROS1-wt | TPM3-NTRK1-wt/EML4-ALK-L1196M-G1202R | TPM3-NTRK1-wt/EML4-ALK-wt
Cc1cc2n(n1)-c1ccc(F)cc1[C@@H](C)Oc1cc(cnc1N)-c1c(C#N)ncn1C2 [Example 61, (19R)-22-amino-16-fluoro-10,19-dimethyl-20-oxa-4,6,11,12,23-pentaazapentacyclo[19.3.1.0^2,^6.0^8,^12.0^13,^18]pentacosa-1(24),2,4,8,10,13,15,17,21(25),22-decaene-3-carbonitrile] | A (bin A for very high selectivity, ratio>30-fold) | A (bin A for very high selectivity, ratio>30-fold) | B (bin B for high selectivity, ratio>10-fold) | A (bin A for very high selectivity, ratio>30-fold)
CCn1nnc2c1-c1cnc(N)c(c1)O[C@H](C)c1cc(F)ccc1-c1ncc(F)cc1C2 [Example 70, (20R)-3-ethyl-10,17-difluoro-20-methyl-21-oxa-3,4,5,12,24-pentaazapentacyclo[20.3.1.0^2,^6.0^8,^13.0^14,^19]hexacosa-1(25),2(6),4,8(13),9,11,14,16,18,22(26),23-undecaen-23-amine] | A (bin A for very high selectivity, ratio>30-fold) | A (bin A for very high selectivity, ratio>30-fold) | C (bin C for moderate selectivity, ratio≥1) | A (bin A for very high selectivity, ratio>30-fold)
CCn1nc(OC)c2c1-c1cnc(N)c(c1)O[C@H](C)c1cc(F)ccc1-c1nn(C)cc1C2 [Example 181, (19R)-3-ethyl-16-fluoro-5-methoxy-10,19-dimethyl-20-oxa-3,4,10,11,23-pentaazapentacyclo[19.3.1.0^2,^6.0^8,^12.0^13,^18]pentacosa-1(24),2(6),4,8,11,13,15,17,21(25),22-decaen-22-amine] | A (bin A for very high selectivity, ratio>30-fold) | A (bin A for very high selectivity, ratio>30-fold) | C (bin C for moderate selectivity, ratio≥1) | A (bin A for very high selectivity, ratio>30-fold)
Cc1nn(CC2CC2)c2c1Cc1cc(C(F)F)nn1-c1ccc(F)cc1[C@@H](C)Oc1cc-2cnc1N [Example 125, (19R)-3-(cyclopropylmethyl)-10-(difluoromethyl)-16-fluoro-5,19-dimethyl-20-oxa-3,4,11,12,23-pentaazapentacyclo[19.3.1.0^2,^6.0^8,^12.0^13,^18]pentacosa-1(24),2(6),4,8,10,13,15,17,21(25),22-decaen-22-amine] | A (bin A for very high selectivity, ratio>30-fold) | A (bin A for very high selectivity, ratio>30-fold) | A (bin A for very high selectivity, ratio>30-fold) | A (bin A for very high selectivity, ratio>30-fold)
CCn1nnc2c1-c1cnc(N)c(c1)O[C@H](C)c1cc(F)ccc1-n1nc(C(F)(F)F)cc1C2 [Example 107, (19R)-3-ethyl-16-fluoro-19-methyl-10-(trifluoromethyl)-20-oxa-3,4,5,11,12,23-hexaazapentacyclo[19.3.1.0^2,^6.0^8,^12.0^13,^18]pentacosa-1(24),2(6),4,8,10,13,15,17,21(25),22-decaen-22-amine] | A (bin A for very high selectivity, ratio>30-fold) | A (bin A for very high selectivity, ratio>30-fold) | C (bin C for moderate selectivity, ratio≥1) | C (bin C for moderate selectivity, ratio≥1)
CCn1ncc2c1-c1cnc(N)c(c1)OCc1cc(F)ccc1-n1ncc(F)c1C2 [Example 48, 3-ethyl-9,16-difluoro-20-oxa-3,4,11,12,23-pentaazapentacyclo[19.3.1.0^2,^6.0^8,^12.0^13,^18]pentacosa-1(24),2(6),4,8,10,13,15,17,21(25),22-decaen-22-amine] | A (bin A for very high selectivity, ratio>30-fold) | A (bin A for very high selectivity, ratio>30-fold) | B (bin B for high selectivity, ratio>10-fold) | A (bin A for very high selectivity, ratio>30-fold)
C[C@H]1Oc2cc(cnc2N)-c2c(C#N)ncn2Cc2cccnc2-c2ccc(F)cc21 [Example 12, (20R)-23-amino-17-fluoro-20-methyl-21-oxa-4,6,12,24-tetraazapentacyclo[20.3.1.0^2,^6.0^8,^13.0^14,^19]hexacosa-1(25),2,4,8(13),9,11,14,16,18,22(26),23-undecaene-3-carbonitrile] | A (bin A for very high selectivity, ratio>30-fold) | A (bin A for very high selectivity, ratio>30-fold) | A (bin A for very high selectivity, ratio>30-fold) | A (bin A for very high selectivity, ratio>30-fold)
C[C@H]1Oc2cc(cnc2N)-c2c(C3CCC3)noc2Cc2cn(C)nc2-c2ccc(F)cc21 [Example 26, (19R)-3-cyclobutyl-16-fluoro-10,19-dimethyl-5,20-dioxa-4,10,11,23-tetraazapentacyclo[19.3.1.0^2,^6.0^8,^12.0^13,^18]pentacosa-1(24),2(6),3,8,11,13,15,17,21(25),22-decaen-22-amine] | A (bin A for very high selectivity, ratio>30-fold) | A (bin A for very high selectivity, ratio>30-fold) | B (bin B for high selectivity, ratio>10-fold) | A (bin A for very high selectivity, ratio>30-fold)
Cn1nc(C#N)c2c1Cc1cc(Cl)nn1-c1ccc(F)cc1COc1cc-2cnc1N [Example 113, 22-amino-10-chloro-16-fluoro-5-methyl-20-oxa-4,5,11,12,23-pentaazapentacyclo[19.3.1.0^2,^6.0^8,^12.0^13,^18]pentacosa-1(24),2(6),3,8,10,13,15,17,21(25),22-decaene-3-carbonitrile] | A (bin A for very high selectivity, ratio>30-fold) | A (bin A for very high selectivity, ratio>30-fold) | C (bin C for moderate selectivity, ratio≥1) | A (bin A for very high selectivity, ratio>30-fold)
C[C@H]1Oc2cc(cnc2N)-c2c(C(F)F)cnn2Cc2cc(F)cnc2-c2ccc(F)cc21 [Example 17, (20R)-3-(difluoromethyl)-10,17-difluoro-20-methyl-21-oxa-5,6,12,24-tetraazapentacyclo[20.3.1.0^2,^6.0^8,^13.0^14,^19]hexacosa-1(25),2,4,8(13),9,11,14,16,18,22(26),23-undecaen-23-amine] | B (bin B for high selectivity, ratio>10-fold) | A (bin A for very high selectivity, ratio>30-fold) | D (bin D for low selectivity, ratio<1) | B (bin B for high selectivity, ratio>10-fold)
C[C@H]1Oc2cc(cnc2N)-c2c(cnn2CC(F)F)Cc2cc(C(F)(F)F)nn2-c2ccc(F)cc21 [Example 84, (19R)-3-(2,2-difluoroethyl)-16-fluoro-19-methyl-10-(trifluoromethyl)-20-oxa-3,4,11,12,23-pentaazapentacyclo[19.3.1.0^2,^6.0^8,^12.0^13,^18]pentacosa-1(24),2(6),4,8,10,13,15,17,21(25),22-decaen-22-amine] | A (bin A for very high selectivity, ratio>30-fold) | A (bin A for very high selectivity, ratio>30-fold) | C (bin C for moderate selectivity, ratio≥1) | A (bin A for very high selectivity, ratio>30-fold)
C[C@H]1Oc2cc(cnc2N)-c2c(nn(C)c2C2CCC2)Cc2ccnn2-c2ccc(F)cc21 [Example 174, (19R)-3-cyclobutyl-16-fluoro-4,19-dimethyl-20-oxa-4,5,11,12,23-pentaazapentacyclo[19.3.1.0^2,^6.0^8,^12.0^13,^18]pentacosa-1(24),2,5,8,10,13,15,17,21(25),22-decaen-22-amine] | B (bin B for high selectivity, ratio>10-fold) | A (bin A for very high selectivity, ratio>30-fold) | C (bin C for moderate selectivity, ratio≥1) | A (bin A for very high selectivity, ratio>30-fold)
CCn1ncc2c1-c1cnc(N)c(c1)O[C@H](C)c1cc(F)ccc1-n1nc(C(F)F)cc1C2 [Example 102, (19R)-10-(difluoromethyl)-3-ethyl-16-fluoro-19-methyl-20-oxa-3,4,11,12,23-pentaazapentacyclo[19.3.1.0^2,^6.0^8,^12.0^13,^18]pentacosa-1(24),2(6),4,8,10,13,15,17,21(25),22-decaen-22-amine] | A (bin A for very high selectivity, ratio>30-fold) | A (bin A for very high selectivity, ratio>30-fold) | C (bin C for moderate selectivity, ratio≥1) | B (bin B for high selectivity, ratio>10-fold)
Cc1nc2c(s1)Cc1nnn(CC3CC3)c1-c1cnc(N)c(c1)O[C@H](C)c1cc(F)ccc1-2 [Example 114, (19R)-3-(cyclopropylmethyl)-16-fluoro-10,19-dimethyl-20-oxa-9-thia-3,4,5,11,23-pentaazapentacyclo[19.3.1.0^2,^6.0^8,^12.0^13,^18]pentacosa-1(24),2(6),4,8(12),10,13,15,17,21(25),22-decaen-22-amine] | A (bin A for very high selectivity, ratio>30-fold) | A (bin A for very high selectivity, ratio>30-fold) | A (bin A for very high selectivity, ratio>30-fold) | A (bin A for very high selectivity, ratio>30-fold)
